Read-outs that look alike come from different tables or passages of the source.
Tests used:
recombinant human PAI-1 [1] = target: T1, recombinant human PAI-1 (Homo sapiens, UniProt P05121); experiment: Test Example 2: Human PAI-1 Inhibitory Activity (pH 7.4 HEPES buffer, 10 minutes incubation with two-chain tPA); format: biochemical; parameters: purchased Molecular Innovations, Inc; conditions: read-out: Inhibition Rate of PAI-1 Activity (%)
Protocol: 0.1 M HEPES, 0.1 M NaCl. 1 mM EDTA. 0.1 % Polyethylene glycol 8,000 (Hampton Research Corporation),
2 mM Dimethyldecylphoshine oxide [Apo-10] (Fluka Corporation)

recombinant rat PAI-1 = target: T2, recombinant rat PAI-1 (Rattus norvegicus, UniProt P20961); experiment: biochemical; conditions: read-out: Inhibition Rate of PAI-1 Activity (%)
T2 sequence (P20961 24-402): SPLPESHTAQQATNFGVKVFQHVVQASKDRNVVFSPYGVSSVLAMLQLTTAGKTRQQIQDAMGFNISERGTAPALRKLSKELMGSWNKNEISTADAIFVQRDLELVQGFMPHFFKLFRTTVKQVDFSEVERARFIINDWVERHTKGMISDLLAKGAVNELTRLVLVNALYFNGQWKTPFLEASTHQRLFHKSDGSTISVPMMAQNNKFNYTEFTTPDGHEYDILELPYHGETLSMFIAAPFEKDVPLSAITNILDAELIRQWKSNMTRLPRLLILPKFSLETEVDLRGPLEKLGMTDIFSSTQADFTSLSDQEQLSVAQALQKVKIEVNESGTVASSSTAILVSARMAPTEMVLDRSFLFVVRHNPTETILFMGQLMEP

recombinant human PAI-1 [2] = target: T1, recombinant human PAI-1; experiment: Test Example 4: Human PAI-1 Inhibitory Activity (amount of PAI-1 bound to plate-coated one-chain tPA, ELISA); format: biochemical; parameters: purchased Molecular Innovations, Inc; conditions: human PAI-1 bound to tPA, read-out: Inhibition Rate of PAI-1 Activity (%); for inhibition at 0.3 µM: Compound Concentration 0.3µM; for inhibition at 1 µM: Compound Concentration 1µM; for inhibition at 3 µM: Compound Concentration 3µM
Protocol: 100 µl of tPA solution, where one-chain recombinant tPA (hereinafter reffered to as tPA; American diagnostica, inc.) had been diluted with Buffer A to acheive a concentration of 10 µg/ml, was added to each well of a 96-well plate (Nunc Maxisorp), and the plate was incubated for one night at 4 °C to be coated with tPA. Then, after suction of tPA solution from the 96-well plate, the plate was rinsed successively with Buffer A and Buffer B. To Buffer B, solutions of the compound according to the present invention dissolved with DMSO (final DMSO concentration: 0.2 %) and recombinant human PAI-1 (Molecular Innovations, Inc.) were added. The mixtures were blended so that the final concentrations would be 0.1 to 3.0 µM and 50 ng/ml respectively, and were incubated for 15 minutes on ice. These mixed solutions were added to the rinsed 96-well plate at 100 µl/well, and incubated for 60 minutes at room temperature. To prepare a calibration curve, PAI-1 solutions without the compound according to the present invention (solutions where the final concentrations being 100, 50, 25, 12.5, 6.25, 3.13, or 1.56 ng/ml PAI-1) were added at 100 µl/well, and the plate was incubated for 60 minutes at room temperature, as standard.
After incubation, the reaction mixture was removed by suction, and each well was rinsed with Wash Buffer. Next, anti-human PAI-1 monoclonal antibody (PROGEN Inc.) diluted with Buffer C to be 3.0 µg/ml was added to the 96-well plate at 100 µl/well, and the plate was incubated for 1 hour at room temperature. After rinsing each well with Wash Buffer, alkaline phosphatase-labeled goat anti-mouse IgG (H+L) (Jackson ImmunoResearch, Inc.) diluted with Buffer D to be 0.12 µg/ml was added at 100 µl/well, and the plate was incubated for 1 hour at room temperature. After rinsing each well with Wash Buffer, 1.0 mg/ml p-Nitrophenyl Phosphate (SIGMA) was added to the 96-well plate at 100 µl/well to start the reaction. After 30 to 60 minutes, 25 µl of 0.5 N NaOH was added to stop the reaction, and the absorbance was measured at 405 nm using a multiplate reader (GENios; TECAN G.M.B.H.).
Based on the calibration curve prepared from the standard wells, amounts of PAI-1 bound to tPA in the wells that had been treated with the compound according to the present invention were calculated, and the PAI-1 inhibition rates by the compounds according to the present invention were obtained by the following equation. [API-1InhibitionRate(%)] = [1-(amountofPAI-1boundtotPaonthewellbytreatmentwiththecompondaccordingtothepresentinvention)/(amountofPAI-1boundtotPAonthewellbytreatmentwithPAI-1solutionnotincledingthecompondaccordingtotheinvention(solution having the final concentration of 50 nb/ml PAI-1)] × 100 [formula] • <Composition of Buffer A> 0.1 M Tris-HCl, 150 mM NaCl, pH 7.7 • <Composition of Buffer B> 50 mM sodium phosphate, 0.1 M NaCl, 1 mM EDTA, pH 6.6 • <Composition of Buffer C> 50 mM sodium phosphate, 100 mM NaCl, pH 7.4 • <Composition of Buffer D> 0.01 M Tris-HCl, 0.25 M NaCl, pH 8.0 • <Compositon of Wash Buffer> 0.05 % Tween 20, 0.1 % BSA in Buffer A • <Composition of p-Nitrophenyl Phosphate solution> 1 M Diethanolamine 0.5 mM MgCl2, p-Nitrophenyl phosphate, pH 9.8

recombinant human PAI-1 [3] = target: T1, recombinant human PAI-1; experiment: biochemical
[4] = read-out: Inhibition Rate of PAI-1 Activity (%)
[5] = read-out: Inhibition Rate of PAI-1 Activity (%), Compound Concentration 5µM
[6] = read-out: Inhibition Rate of PAI-1 Activity (%), Compound Concentration 10µM
[7] = read-out: Inhibition Rate of PAI-1 Activity (%), Compound Concentration 25µM

T1 sequence (P05121 24-402): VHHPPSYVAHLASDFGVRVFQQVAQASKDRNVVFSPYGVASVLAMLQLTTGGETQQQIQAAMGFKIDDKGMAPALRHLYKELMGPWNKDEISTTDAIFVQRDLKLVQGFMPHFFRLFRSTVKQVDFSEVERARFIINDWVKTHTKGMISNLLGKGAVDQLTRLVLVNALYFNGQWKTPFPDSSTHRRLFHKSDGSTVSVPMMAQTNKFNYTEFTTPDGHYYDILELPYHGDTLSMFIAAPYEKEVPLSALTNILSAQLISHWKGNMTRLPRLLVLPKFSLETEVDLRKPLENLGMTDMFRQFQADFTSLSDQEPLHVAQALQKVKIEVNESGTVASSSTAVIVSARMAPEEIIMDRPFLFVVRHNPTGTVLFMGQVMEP

Compound	inhibition at 0.1 µM (recombinant human PAI-1 [1])	inhibition at 0.3 µM (recombinant human PAI-1 [1])	inhibition at 1 µM (recombinant human PAI-1 [1])	inhibition at 3 µM (recombinant human PAI-1 [1])	inhibition at 0.3 µM (recombinant rat PAI-1)	inhibition at 1 µM (recombinant rat PAI-1)	inhibition at 3 µM (recombinant rat PAI-1)	inhibition at 10 µM (recombinant rat PAI-1)	inhibition at 0.3 µM (recombinant human PAI-1 [2])	inhibition at 1 µM (recombinant human PAI-1 [2])	inhibition at 3 µM (recombinant human PAI-1 [2])	inhibition at 5 µM (recombinant human PAI-1 [3]; [4])	inhibition at 10 µM (recombinant human PAI-1 [3]; [4])	inhibition at 25 µM (recombinant human PAI-1 [3]; [4])	inhibition at 5 µM (recombinant human PAI-1 [3]; [5])	inhibition at 10 µM (recombinant human PAI-1 [3]; [6])	inhibition at 25 µM (recombinant human PAI-1 [3]; [7])
CC(C)(C)c1ccc(Oc2ccc(Oc3ccc(OC(F)(F)F)cc3)cc2CCC(=O)O)cc1 [Compound 100]	0%	2%	29%	93%	0%	7%	70%	> 99%	7%	37%	79%	64%	91%	98%			
CCC(CC)Oc1ccc(N(Cc2ccc(C(C)(C)C)cc2)C(=O)C(=O)O)cc1-c1ccc(OC(F)(F)F)cc1 [Compound 197]	6%	1%	38%	> 99%	0%	37%	84%	75%	21%	34%	73%				90%	92%	73%
CCC(CC)Oc1ccc(-c2ccc(OC(F)(F)F)cc2)cc1N(Cc1ccc(C(C)(C)C)cc1)C(=O)C(=O)O [Compound 199]	9%	13%	64%	> 99%	0%	35%	97%	> 99%	18%	41%	73%				83%	89%	
CC(C)(C)c1ccc(COc2cc(Oc3ccc(OC(F)(F)F)cc3)ccc2CCC(=O)O)cc1 [Compound 78]	0%	4%	21%	96%	0%	4%	71%	90%	20%	39%	83%				24%	60%	98%
CCCOc1ccc(N(Cc2ccc(C(C)(C)C)cc2)C(=O)C(=O)O)cc1-c1ccc(OC(F)(F)F)cc1 [Compound 185]	0%	9%	34%	> 99%	3%	17%	85%	76%	10%	20%	49%				81%	87%	89%
CCN(CC)c1ccc(N(Cc2ccc(C(C)(C)C)cc2)C(=O)C(=O)O)c(-c2ccc(OC(F)(F)F)cc2)c1 [Compound 208]	10%	1%	36%	99%	0%	12%	82%	81%	0%	6%	36%				89%	98%	
CCCCOc1ccc(N(CCCCc2ccccc2)C(=O)C(=O)O)cc1-c1ccc(OC(F)(F)F)cc1 [Compound 227]	0%	7%	41%	98%	0%	14%	77%	95%				63%	90%				
CC(C)(C)c1ccc(CN(C(=O)C(=O)O)c2cc(C(F)(F)F)ccc2-c2ccc(OC(F)(F)F)cc2)cc1 [Compound 168]	0%	0%	33%	99%	0%	12%	81%	97%							63%	94%	
CC(C)(C)c1ccc(CN(C(=O)C(=O)O)c2ccc(OCc3ccccc3)c(-c3ccc(OC(F)(F)F)cc3)c2)cc1 [Compound 212]	5%	15%	64%	98%	8%	40%	73%	67%				78%	95%				
CCN(CC)c1ccc(N(CCCc2ccccc2)C(=O)C(=O)O)c(-c2ccc(OC(F)(F)F)cc2)c1 [Compound 238]	0%	0%	21%	87%	0%	8%	46%	98%							76%	95%	93%
CCCCOc1ccc(N(Cc2ccc(C(C)(C)C)cc2)C(=O)C(=O)O)cc1-c1ccc(OC(F)(F)F)cc1 [Compound 193]	2%	5%	34%	> 99%	2%	26%	81%	70%							81%	89%	
CC(C)(C)c1ccc(COc2ccc(-c3ccc(OC(F)(F)F)cc3)cc2N(Cc2ccccc2)C(=O)C(=O)O)cc1 [Compound 179]	1%	19%	68%	> 99%	7%	38%	> 99%	> 99%							64%	91%	

From patent EP2272817A1, “PAI-1 INHIBITOR” (Institute of Medicinal Molecular Design, Inc., priority 2008, dated 2009)
